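GI50 marks 50% less growth. TGI is the concentration that stops growth completely.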
Tests used:
Assay in all cases: DTP human tumour cell line panel, 384-well format; in the data active = GI50 below about 0.43 µM; inactive = the rest
[1] = tested on: OVCAR-4 ovarian
[2] = tested on: OVCAR-3 ovarian
[3] = tested on: SK-MEL-28 melanoma
[4] = tested on: HCT-116 colon
[5] = tested on: A498 renal
[6] = tested on: NCI-H23 lung
[7] = tested on: SF-295 CNS
[8] = tested on: PC-3 prostate
[9] = tested on: HT29 colon
[10] = tested on: NCI-H460 NSCLC
[11] = tested on: HL-60(TB) leukemia
[12] = tested on: SF-268 CNS
[13] = tested on: SF-539 CNS
[14] = tested on: HS 578T breast
[15] = tested on: ACHN renal
[16] = tested on: LOX IMVI melanoma
[17] = tested on: RXF 393 renal
[18] = tested on: SK-OV-3 ovarian
[19] = tested on: NCI-H522 lung
[20] = tested on: KM12 colon
[21] = tested on: MCF7 breast
[22] = tested on: BT-549 breast
[23] = tested on: UACC-62 melanoma
[24] = tested on: MDA-MB-468 breast
[25] = tested on: SNB-19 CNS
[26] = tested on: EKVX NSCLC
[27] = tested on: IGROV1 ovarian
[28] = tested on: MDA-MB-435 melanoma
[29] = tested on: UACC-257 melanoma
[30] = tested on: TK-10 renal
[31] = tested on: HCC-2998 colon
[32] = tested on: U251 glioblastoma
[33] = tested on: SN12C renal
[34] = tested on: COLO 205 colon
[35] = tested on: MALME-3M melanoma
[36] = tested on: DU-145 prostate
[37] = tested on: M14 melanoma
[38] = tested on: OVCAR-5 ovarian
[39] = tested on: T-47D breast
[40] = tested on: NCI-H226 lung
[41] = tested on: CAKI-1 renal
[42] = tested on: HCT-15 colon
[43] = tested on: A549 NSCLC
[44] = tested on: SK-MEL-5 melanoma
[45] = tested on: HOP-92 NSCLC
[46] = tested on: NCI-H322M lung
[47] = tested on: HOP-62 NSCLC
[48] = tested on: MOLT-4 leukemia
[49] = tested on: SR leukemia
[50] = tested on: RPMI-8226 leukemia
[51] = tested on: OVCAR-8 ovarian
[52] = tested on: NCI/ADR-RES ovarian
[53] = tested on: SNB-75 CNS
[54] = tested on: MDA-MB-231 breast

COc1cc2c(cc1-c1c(C)noc1C)ncc1[nH]c(=O)n([C@H](C)c3ccccn3)c12
24.7 µM: TGI [40]
inactive: GI50 [3] 2.64 µM | GI50 [4] 1.9 µM | GI50 [5] 0.693 µM | GI50 [6] 1.25 µM | GI50 [7] 5.3 µM | GI50 [8] 0.743 µM | GI50 [10] 2.92 µM | GI50 [12] 8.13 µM | GI50 [13] 0.829 µM | GI50 [15] 1.61 µM | GI50 [17] 8.71 µM | GI50 [18] 0.577 µM | GI50 [20] 1.71 µM | GI50 [22] 0.504 µM | GI50 [24] 0.872 µM | GI50 [25] 0.922 µM | GI50 [26] 27.7 µM | GI50 [27] 0.584 µM | GI50 [28] 2.45 µM | GI50 [29] 0.503 µM | GI50 [30] 0.575 µM | GI50 [32] 3.17 µM | GI50 [34] 0.498 µM | GI50 [35] 1.91 µM | GI50 [36] 8.96 µM | GI50 [37] 1.03 µM | GI50 [39] 3.1 µM | GI50 [40] 1.31 µM | GI50 [41] 0.479 µM | GI50 [42] 0.488 µM | GI50 [43] 2.39 µM | GI50 [44] 0.438 µM | GI50 [45] 11.4 µM | GI50 [46] 0.509 µM | GI50 [48] 0.915 µM | GI50 [51] 0.521 µM | GI50 [52] 3.05 µM | GI50 [53] 18.8 µM | GI50 [54] 0.91 µM
2.54 µM: TGI [47]
7.74 µM: TGI [48]
9.78 µM: TGI [27]
2.8 µM: TGI [42]
6.27 µM: TGI [34]
45.5 µM: TGI [18]
9.51 µM: TGI [46]
7.13 µM: TGI [2]
0.574 µM: TGI [16]
active: GI50 [1] 0.199 µM | GI50 [2] 0.421 µM | GI50 [9] 0.412 µM | GI50 [11] 0.144 µM | GI50 [14] 0.342 µM | GI50 [16] 0.245 µM | GI50 [19] 0.321 µM | GI50 [21] 0.269 µM | GI50 [23] 0.308 µM | GI50 [31] 0.303 µM | GI50 [33] 0.364 µM | GI50 [38] 0.392 µM | GI50 [47] 0.335 µM | GI50 [49] 0.297 µM | GI50 [50] 0.212 µM
0.615 µM: TGI [1]
11.6 µM: TGI [29]
51.2 µM: TGI [28]
63.5 µM: TGI [25]
11.4 µM: TGI [22]
33.2 µM: TGI [37]
0.277 µM: TGI [11]
12.4 µM: TGI [30]
14.3 µM: TGI [49]
9.6 µM: TGI [51]
> 100 µM: TGI [3] | TGI [4] | TGI [5] | TGI [6] | TGI [7] | TGI [8] | TGI [9] | TGI [10] | TGI [12] | TGI [13] | TGI [15] | TGI [17] | TGI [20] | TGI [21] | TGI [23] | TGI [24] | TGI [26] | TGI [32] | TGI [33] | TGI [36] | TGI [39] | TGI [41] | TGI [43] | TGI [45] | TGI [53] | TGI [54]
2.41 µM: TGI [19]
8.69 µM: TGI [44]
32.5 µM: TGI [35]
16.8 µM: TGI [52]
21.5 µM: TGI [14]
2 µM: TGI [31]
0.819 µM: TGI [50]
10.9 µM: TGI [38]

Source: PubChem BioAssay (NCI)
